Structures can show the parent of a compound that is named as a salt.
What was measured:
CLL cells [1] = test: LC3-Lamp2 co-localization (autophagosome-lysosome fusion) by confocal microscopy in CLL cells; assay type: cell-based, human; details: CLL cells, 4 hours, flavopiridol 2 μM
Procedure: After 4 hours exposure to agents, cells were washed in phosphate-buffered saline (PBS) and made adherent on a microscope slide by centrifugation in a Cytospin3 (Shandon) centrifuge. Immediately after cytospin, cells were fixed in cold acetone. […] Nuclei were stained blue with DAPI (Vector Laboratories, Burlingame, Calif.). Images were taken using a 60× objective and 4× digital zoom with Olympus Fluoview 1000 Laser Scanning Confocal microscope at the Ohio State University Campus Microscopy and Imaging Facility. ATF6 antibody was purchased from LifeSpan Biosciences (Seattle, Wash.) and Nrf2 was from Santa Cruz Biotechnology (Santa Cruz, Calif.). Nuclei were evaluated for ATF6 and Nrf2 using confocal microscopy to collect Z stacks, approximately 45 slices per cell, 0.2 μm each.
LC3 intensity and number of dots per cell were both assessed in the fluorescence images. Integrated intensity was measured using Metamorph v.7.0. To calculate the number of “dots” (local extreme point in pixel-intensity profile at which a number of high-intensity pixels form a cluster), a Gaussian filter was first applied to reduce noise. Cells were enumerated electronically by an improved watershed-based algorithm. To quantify co-localization, two binary nuclei images—red (R) and green (G)—are obtained. […]

CLL cells [2] = test: Cell viability by annexin V/PI flow cytometry in CLL cells
Procedure: Percent of live cells was determined by staining with annexin V-fluorescein isothiocyanate and propidium iodide (PI). After exposure to agents, cells were washed with PBS and stained in 1× binding buffer (BD Biosciences, Franklin Lakes, N.J.). Cell viability was assessed by flow cytometry using a Beckman-Coulter Cytomics FC500 cytometer. Data were analyzed with the CXP Cytometer software package (Beckman-Coulter). A total of 10,000 cells were counted for each sample. The cells treated with flavopiridol were washed after 4 hours with PBS and re-suspended in regular growth medium (RPMI 1640) supplemented with 10% human serum and antibiotics for the remainder of the incubation time. […] For all the other conditions, cells were incubated with the respective drugs for 24 hours continuously.
CLL cells were suspended in buffer V (Amaxa kit, Lonza, Allendale, N.J.) and nucleofection was performed using program U016 (5 μg siRNA and 1×10^7 cells per cuvette). Scrambled siRNA and siRNAs to ATG5, ATG7 and ASK1 were purchased from Sigma-Aldrich. Cells were immediately suspended in warm, complete media supplemented with 10% human serum, and RNA was extracted after 36 hours. For CDK1 and CDK5, siRNAs were purchased from Applied Biosystems (Carlsbad, Calif.). Transfections were done using 5 nM siRNA per cuvette, and RNA was harvested at 48 hours.

p62 = p62 immunoblot in samples from CLL patients treated with flavopiridol; assay type: in vivo, human; details: samples at 4.5 hours post flavopiridol infusion
Procedure: In this trial, CLL cells were collected pre- and post-therapy 4.5 hours, day 1 (n=16). By confocal fluorescence microscopy, both increased autophagosome formation (P=0.0011) and fusion with lysosomes is observed (FIG. 3F). […] The level of autophagy, as assessed by LC3 fluorescence intensity, was overall greater in non-responders versus responders in both pre- and post-treatment samples (P=0.018); however, the increase in intensity at 4.5 hours post- vs. pre-treatment was only slightly higher for non-responders compared to responders (fold change of 2.51 vs. 1.82, P=0.3445). […] Collectively, these studies provide evidence that our in vitro observations are relevant to the clinical setting.
Proteins extracted from whole cell lysates (50 μg/lane) were separated on polyacrylamide gels and transferred on nitrocellulose membrane. Antibodies used for immunoblots included LC3, IRE1α, TRAF2, PI3K III, ATG4C, ATG5-12, UVRAG, Beclin-1 (Cell Signaling, Boston, Mass.), GAPDH, Nrf2, ASK1, ULK1 (Santa Cruz Biotechnology), and Bif-1, ATG14-Barkor (Sigma-Aldrich, St Louis, Mo.). Species-appropriate secondary antibodies were obtained from BioRad Laboratories (Hercules, Calif.). Following antibody incubations, proteins were detected using a chemiluminescent substrate (BioRad Laboratories). […] Quantification was done using FluorChem Q (Alpha Innotech, San Leandro Calif.).

XBP1, IRE1, GRP78 = test: Real-time RT-PCR of ER stress genes in CLL cells in vitro; assay type: cell-based, human; details: CLL cells n=5; flavopiridol 2 μM, thapsigargin 1 μM, tunicamycin 3 μg/ml; CD52 control gene
Procedure: RNA was extracted using TRIzol reagent (Invitrogen, Carlsbad, Calif.) and purified using QIAGEN RNeasy columns (Qiagen, Valencia, Calif.). cDNA was prepared with SuperScript First-Strand Synthesis System (Invitrogen). Real-time PCR was performed using primers purchased from Applied Biosystems. Detection was performed using an ABI Prism 7700 sequence detection system (Applied Biosystems). Average relative expression (treatment compared with vehicle) was normalized to the internal control gene CD52. Primers to detect spliced XBP1 were designed using Primer 3 software and purchased from IDT. Samples were analyzed on 10% acrylamide gels.

697 cells = test: ChIP assay of ATF6 at GRP78 promoter in 697 cells; assay type: cell-based; details: relative to IgG control
Procedure: In brief, cells were treated with 37% formaldehyde to ensure crosslinking of proteins to DNA. Cells were lysed and sonicated to shear the chromatin to fragments of approximately 500 bp. Sheared chromatin was incubated with ATF6 antibody (LifeSpan Biosciences, Seattle, Wash.), followed by precipitation, washing and reversing of the crosslinks Purified DNA was then analyzed by real-time quantitative PCR using primers to the GRP78 promoter region. Primers were designed using Primer 3 software and purchased from IDT (Coralville, Iowa).

caspases 4 and 8 = test: Caspase 4 and 8 activity in samples from CLL patients treated with flavopiridol; assay type: in vivo, human; details: 4.5 hours following flavopiridol infusion
Procedure: The presence of active caspase enzymes was determined by the AFC assay. Briefly, lysates containing approximately 3×10^6 cells were incubated with 50 μM LEVD-AFC (caspase 4 substrate) or LETD-AFC (caspase 8 substrate) from MP Biomedicals (Solon, Ohio) in 2× cytobuffer from BioVision (Exton, Pa.) containing 10 mM dithiothretiol (DTT). Caspase 4 activity was measured one hour after addition of substrate and caspase 8 activity was measured 30 minutes after addition of substrate. Release of free AFC was measured with a Beckman-Coulter DTX 880 multimode detector (Filters: excitation, 405/10 nm; emission, 535/25 nm). Caspase 4 inhibitor Z-YVAD-FMK was purchased from R&D Systems.

CLL patients = CLL patients treated with flavopiridol; cited from earlier work

CN1CC[C@H](c2c(O)cc(O)c3c(=O)cc(-c4ccccc4Cl)oc23)[C@H](O)C1 [flavopiridol, (cis-5,7-dihydroxy-2-(2-chlorophenyl)-8-[4-(3-hydroxy-1-methyl)-piperidin-yl]-1-benzopyran-4-one)hydrochloride]
autophagy flux by LC3-Lamp2 co-localization, agent alone (CLL cells [1]): unrestricted autophagy flux was demonstrated by co-localization of LC3 and Lamp2 | effect of ASK1 siRNA vs scrambled siRNA on sensitivity to the agent (CLL cells [2]; CLL cells n=5, flavopiridol 2 μM): significantly (P=0.005) more resistant | effect of chloroquine addition on cell death caused by the agent (CLL cells [2]; CLL cells, annexin/PI negative, CQ 0.5 μM, flavopiridol 4 hours then washed, CQ continuous 24 hours): significantly enhances the cytotoxicity | effect of ATG5/ATG7 siRNA vs scrambled siRNA on cytotoxicity of the agent (CLL cells [2]; CLL cells, viability at 24 hours, thapsigargin 1 μM, flavopiridol 2 μM): significantly increased | p62 protein expression (p62): a decrease in protein expression | expression of ER stress genes XBP1, IRE1 and GRP78 (XBP1, IRE1, GRP78): significant, time-dependent increase in expression of ER stress genes XBP1, IRE1 and GRP78 | binding of GRP78 promoter region by ATF6 (697 cells): enhanced binding of the GRP78 promoter region by ATF6 | patient samples with at least a two-fold increase in activity of caspases 4 and 8 (caspases 4 and 8): 13 of 20 | CLL patients in whom drug resistance is usually observed (CLL patients): approximately 40%
